Data reported in patent publication US20250188065A1, “LIGHT-CONTROLLED BIOORTHOGONAL TETRAZINE LIGATION” (The Regents of the University Of California, priority 2020, published 2025).
“Also recorded” adds a separate entry of the source. One block for each compound: values may come before it.

Columns and labels:
[1] = system: Hep 3B human liver cancer cells; test: Cell viability after light-activated tetrazine prodrug therapy; type: cell-based; conditions: for influence on cell viability, agent alone: 1a 8 μM or TCO-Dox 3c 5.5 μM alone; for influence on cell viability, agent alone with irradiation: LED light 2 minutes, 1a 8 μM, TCO-Dox 3c 5.5 μM or side product 4c 5.5 μM alone
Experimental: FIGS. 5A-5B. Light-activated tetrazine prodrug therapy in Hep 3B cancer cells. FIG. 5A: Application of light-controlled tetrazine ligation to release the chemotherapeutic doxorubicin in the presence of living Hep 3B cancer cells. Dox, doxorubicin. FIG. 5B: Cell viability of Hep 3B cancer cells after treatments with photocaged dihydrotetrazine 1a (8 μM), TCO-Dox 3c (5.5 μM), side product 4c (5.5 μM), and Dox 5a (5.5 μM) with or without irradiation by LED light (405 nm, 18 W) for 2 minutes, followed by incubation at 37° C. for 24 hours. Error bars indicate standard error of mean (SEM), which are measured from 3 replicates. Statistically significant differences in cell viability between no treatment and other means are indicated: **P<0.01. ns, not significant.
Based on the positive dual activation results obtained from the in vitro experiments, we next tested if light-triggered tetrazine ligation enabled prodrug therapy could be carried out in the presence of live cancer cells (FIG. 5B). […] Loss of cell viability was similar to that observed when cells were directly treated with Dox […] (5.5 μM) under the same conditions.
Based on the positive results obtained, we tested whether light-triggered drug delivery could be carried out in the presence of living cancer cells (FIG. 5B). […] However, upon irradiation with LED light (405 nm, 18W) for 2 minutes, followed by incubation for 24 hours, a 75.1±3% reduction of cell viability was observed. The loss of cell viability was similar to that observed when cells were directly treated with Dox 5a (5.5 μM) under the same conditions.

[2] = Stability in 4-methylpiperidine/DMF solution (Fmoc deprotection conditions); type: physicochemical
From the text: Although tetrazine ligation is a widely used bioorthogonal tool, tetrazine-containing amino acid has been rarely explored in the solid-phase peptide synthesis (SPPS) due to dramatic degradations of tetrazines under the protection conditions, such as 4-methylpiperidine/DMF solution. Markedly, photocaged dihydrotetrazine 1a proves to be stable in the presence of 4-methylpiperidine/DMF solution, so that we were able to employ photocaged dihydrotetrazine-containing amino acid in SPPS and obtained the desired tetrazine-containing peptide in the late stage. Here we have synthesized unnatural amino acid photocaged dihydrotetrazine-lysine 1b (12 mg, 15 μmol) and obtained a five-amino-acid peptide 1c through practical SPPS in 49% yield (FIG. 3A). After irradiation of dihydrotetrazine-peptide 1c (10 μM) for 2 minutes in PBS at 37° C., tetrazine-peptide 2c could been readily achieved, which contains two common bioorthogonal groups, including an azido group and a tetrazine group.
Considering the stability of photocaged dihydrotetrazines, we asked if such groups could act as photoprotection moieties, masking latent tetrazines through harsh conditions that would normally be degradative. For example, in 4-methylpiperidine/DMF solution, 40% of tetrazine 2a degrades in 30 minutes. […] Therefore, we hypothesized that photocaged dihydrotetrazines would be tolerated during SPPS. […]

[3] = Stability of photocaged dihydrotetrazine in aqueous solution / PBS / cell lysate without irradiation; type: physicochemical; conditions: absence of irradiation, 37° C.
From the text: We initiated our studies by synthesizing photocaged dihydrotetrazines 1. Ideally, photocaged dihydrotetrazine 1 should be stable in aqueous solution and the uncaged dihydrotetrazine should rapidly air oxidize to tetrazine 2. With these criteria in mind, we chose 3-(but-3-yn-1-yl)-6-phenyl-[…]1,2,4,5-tetrazine as a model building block, which we reduced to the corresponding dihydrotetrazine. We decided to include a terminal alkyne so that the photocaged dihydrotetrazine could be conjugated to functional molecules by copper-catalyzed azide-alkyne cycloaddition. For the photocleavable protecting group, we decided to utilize 1-(2-nitrophenyl)ethyl carbamate, due to its sensitivity to visible light, and its previous use in cellular studies. […] In the absence of irradiation, 1a is stable in aqueous solution at 37° C. with open air for over 4 days. Having photocaged dihydrotetrazines 1 in hand, we next characterized product formation after visible light triggered decaging (FIG. 2A). […] The resulting dihydrotetrazine intermediate is spontaneously oxidized by air, generating the desired 3-(but-3-yn-1-yl)-6-phenyl-1,2,4,5-tetrazine 2a.
A photocaged dihydrotetrazine should be stable in aqueous solution and the dihydrotetrazine should rapidly be oxidized to tetrazine by air. With this hypothesis in mind, we synthesized photocaged dihydrotetrazine 1a from 3-(but-3-yn-1-yl)-6-phenyl-1,2,4,5-tetrazine, which could be converted to the corresponding dihydrotetrazine using the reductant thiourea dioxide (FIG. 1B). 1-(2-Nitrophenyl)ethyl carbamate was investigated as the photocleavable functional group, due to its sensitivity to visible blue light (28) and biocompatibility (29). […] We analyzed light-triggered tetrazine formation from photocaged dihydrotetrazine 1a (FIGS. 2A-2B). […] We measured a second-order rate constant of 101±3 M^−1 s^−1 between 2a and a model strained dienophile, trans-4-cycloocten-1-ol (TCO-OH), by monitoring the disappearance of the characteristic tetrazine visible absorption at 521 nm under pseudo first-order conditions (13).

[4] = Second-order rate constant of tetrazine ligation with strained dienophile; conditions: with TCO-OH; disappearance of tetrazine absorption at 521 nm, pseudo first-order conditions
From the text: A photocaged dihydrotetrazine should be stable in aqueous solution and the dihydrotetrazine should rapidly be oxidized to tetrazine by air. With this hypothesis in mind, we synthesized photocaged dihydrotetrazine 1a from 3-(but-3-yn-1-yl)-6-phenyl-1,2,4,5-tetrazine, which could be converted to the corresponding dihydrotetrazine using the reductant thiourea dioxide (FIG. 1B). 1-(2-Nitrophenyl)ethyl carbamate was investigated as the photocleavable functional group, due to its sensitivity to visible blue light (28) and biocompatibility (29). After reacting the dihydrotetrazine intermediate with the selected photocleavable group, the desired product 1-(2-nitrophenyl)ethyl 6-(but-3-yn-1-yl)-3-phenyl-1,2,4,5-tetrazine-1(4H)-carboxylate photocaged dihydrotetrazine 1a was obtained. Nuclear magnetic resonance (NMR) studies confirmed that the secondary amine adjacent to the alkyl group of dihydrotetrazine 1a is functionalized. We analyzed light-triggered tetrazine formation from photocaged dihydrotetrazine 1a (FIGS. 2A-2B). […] We measured a second-order rate constant of 101±3 M^−1 s^−1 between 2a and a model strained dienophile, trans-4-cycloocten-1-ol (TCO-OH), by monitoring the disappearance of the characteristic tetrazine visible absorption at 521 nm under pseudo first-order conditions (13).

stable in aqueous solution (time) ([3]; open air): over 4 days | decomposition after 4 days of incubation ([3]; PBS or cell lysate): less than 1% | degradation over 1 day ([3]; PBS or cell lysate): not observed
Compound: C#CCCC1=NNC(c2ccccc2)=NN1C(=O)OC(C)c1ccccc1[N+](=O)[O-] (centres unmarked) [1a, 1-(2-nitrophenyl)ethyl 6-(but-3-yn-1-yl)-3-phenyl-1,2,4,5-tetrazine-1(4H)-carboxylate]
influence on cell viability, agent alone [1]: no influence on cell viability | influence on cell viability, agent alone with irradiation [1]: no influence on cell viability | stability in 4-methylpiperidine/DMF solution ([2]; 4-methylpiperidine/DMF solution): stable; also recorded: no detectable degradation

degradation in 4-methylpiperidine/DMF solution ([2]; 30 minutes): 40%
Compound: C#CCCc1nnc(-c2ccccc2)nn1 [2a, 3-(but-3-yn-1-yl)-6-phenyl-1,2,4,5-tetrazine]
second-order rate constant [4]: 101 ± 3 M⁻¹ s⁻¹

Compound: COc1cccc2c1C(=O)c1c(O)c3c(c(O)c1C2=O)C[C@@](O)(C(=O)CO)C[C@@H]3O[C@H]1C[C@H](NC(=O)OC2/C=C/CCCCC2)[C@H](O)[C@H](C)O1 (some centres unmarked) [TCO-Dox 3c]
influence on cell viability, agent alone [1]: no influence on cell viability | influence on cell viability, agent alone with irradiation [1]: no influence on cell viability

Compound: COc1cccc2c1C(=O)c1c(O)c3c(c(O)c1C2=O)C[C@@](O)(C(=O)CO)C[C@@H]3O[C@H]1C[C@H](N)[C@H](O)[C@H](C)O1 [Dox 5a, doxorubicin, reference compound]
loss of cell viability compared with irradiated 1a + TCO-Dox 3c mixture ([1]; direct treatment with Dox 5.5 μM, same conditions): similar
